# From patent US9550782B2, “Compounds and methods for treating diabetes” (Medivation Technologies, Inc., priority 2011, dated 2017)
# Where “and” joins values, the source holds several entries; their conditions need not be identical. Identical values can stand only once.
# What was measured:
# [1] = biological target: T1, rat adrenergic α1B receptor (Rattus norvegicus, UniProt P15823); test: Radioligand binding, adrenergic α1B ([3H]Prazosin); set-up: species or system Wistar Rat; details: for Percentage inhibition of ligand binding, Adrenergic α1B (0.1 μM): repeat datapoints each shown
# T1 construct: rat adrenergic α1B receptor obtained from Wistar Rat liver; from tissue; host or cells: Wistar rat liver
# T1 sequence (P15823 1-515): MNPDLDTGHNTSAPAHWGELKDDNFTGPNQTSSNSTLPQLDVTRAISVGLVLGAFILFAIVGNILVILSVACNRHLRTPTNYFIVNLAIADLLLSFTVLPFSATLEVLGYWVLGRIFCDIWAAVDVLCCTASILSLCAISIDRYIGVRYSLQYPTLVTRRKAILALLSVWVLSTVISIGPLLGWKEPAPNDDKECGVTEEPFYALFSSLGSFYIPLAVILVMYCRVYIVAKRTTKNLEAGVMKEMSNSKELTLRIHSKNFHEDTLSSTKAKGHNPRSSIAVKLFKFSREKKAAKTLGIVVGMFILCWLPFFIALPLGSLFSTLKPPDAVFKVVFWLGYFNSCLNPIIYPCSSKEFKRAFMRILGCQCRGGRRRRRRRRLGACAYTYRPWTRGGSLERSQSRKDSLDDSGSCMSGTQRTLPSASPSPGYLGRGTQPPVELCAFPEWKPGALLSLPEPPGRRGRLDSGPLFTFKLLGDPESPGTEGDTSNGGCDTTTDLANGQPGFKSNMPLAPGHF
# How it was run: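 Specific binding, taken as total minus that remaining with 10 μM phentolamine, is measured after filtration and counting. Rat liver receptor preparation and 0.25 nM [3H]prazosin are incubated with compound in 50 mM Tris-HCl (pH 7.4, 0.5 mM EDTA) at 25° C for 60 min. Activity is reported as percent inhibition.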
# [2] = biological target: T2, human recombinant adrenergic α2B receptor (Homo sapiens, UniProt P18089); test: Radioligand binding, adrenergic α2B ([3H]Rauwolscine); details: for Percentage inhibition of ligand binding, Adrenergic α2B (0.03 μM): repeat datapoints each shown
# T2 construct: expressed in transfected cells; host or cells: CHO-K1
# T2 sequence (P18089 1-450): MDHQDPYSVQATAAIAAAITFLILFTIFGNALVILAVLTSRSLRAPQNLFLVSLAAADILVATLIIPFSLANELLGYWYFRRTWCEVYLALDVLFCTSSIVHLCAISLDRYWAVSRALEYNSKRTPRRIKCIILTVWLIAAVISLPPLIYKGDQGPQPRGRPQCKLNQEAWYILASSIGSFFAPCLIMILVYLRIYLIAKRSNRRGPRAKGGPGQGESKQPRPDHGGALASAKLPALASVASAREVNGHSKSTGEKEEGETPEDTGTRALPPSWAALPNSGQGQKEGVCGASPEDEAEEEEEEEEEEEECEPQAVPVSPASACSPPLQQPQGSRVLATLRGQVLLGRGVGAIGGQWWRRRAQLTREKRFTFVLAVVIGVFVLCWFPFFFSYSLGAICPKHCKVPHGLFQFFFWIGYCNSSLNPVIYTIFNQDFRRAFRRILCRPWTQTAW
# How it was run: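 Assay used CHO-K1-expressed human α2B receptor in Tris-HCl pH 7.4 buffer with MgCl2, EDTA and BSA; 60 min incubation at 25 °C.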
# [3] = biological target: T3, human recombinant adrenergic α2A receptor (Homo sapiens, UniProt P08913); test: Radioligand binding, adrenergic α2A ([3H]MK-912); details: [3H]MK-912; for Percentage inhibition of ligand binding, Adrenergic α2A (0.1 μM): repeat datapoints each shown
# T3 construct: expressed in transfected cells; host or cells: insect Sf9 cells
# T3 sequence (P08913 1-465): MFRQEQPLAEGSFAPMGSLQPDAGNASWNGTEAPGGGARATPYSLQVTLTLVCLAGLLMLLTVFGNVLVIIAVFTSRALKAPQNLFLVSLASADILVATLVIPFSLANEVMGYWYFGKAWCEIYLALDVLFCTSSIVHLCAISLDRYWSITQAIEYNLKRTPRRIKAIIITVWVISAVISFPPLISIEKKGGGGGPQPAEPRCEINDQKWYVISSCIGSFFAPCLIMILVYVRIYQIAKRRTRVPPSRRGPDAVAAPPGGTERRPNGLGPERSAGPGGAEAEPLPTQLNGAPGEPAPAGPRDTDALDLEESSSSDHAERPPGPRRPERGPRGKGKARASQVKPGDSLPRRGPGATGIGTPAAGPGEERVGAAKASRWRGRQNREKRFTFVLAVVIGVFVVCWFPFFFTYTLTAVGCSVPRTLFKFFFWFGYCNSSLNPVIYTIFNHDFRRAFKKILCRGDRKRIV
# How it was run: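 Receptor expressed in Sf9 cells, in 50 mM Tris-HCl pH 7.4, 12.5 mM MgCl2, 2 mM EDTA; compounds incubated with 1 nM [3H]MK-912 for 60 min at 25 °C.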
Structure (SMILES),"Percentage inhibition of ligand binding, Adrenergic α1B ([1]; 0.1 μM compound, 0.1 µM)","Percentage inhibition of ligand binding, Adrenergic α2B ([2]; 0.03 μM compound, 0.03 µM)","Percentage inhibition of ligand binding, Adrenergic α2A ([3]; 0.1 μM compound, 0.1 µM)",further results
"Cc1ccc2c(c1)c1c(n2CC(O)c2cc[n+]([O-])cc2)CCN(C)C1 (single isomer, unassigned) [69a]",–,–,–,"Percentage inhibition of ligand binding, Adrenergic α1B (0.1 μM) ([1]; compound at 0.1 μM, 0.1 µM): 4%; Percentage inhibition of ligand binding, Adrenergic α2B (0.03 μM) ([2]; compound at 0.03 μM, 0.03 µM): 10%; Percentage inhibition of ligand binding, Adrenergic α2A (0.1 μM) ([3]; compound at 0.1 μM, 0.1 µM): 11%"
"Cc1ccc2c(c1)c1c(n2CC(O)c2cc[n+]([O-])cc2)CCN(C)C1 (single isomer, unassigned) [69b]",–,–,–,"Percentage inhibition of ligand binding, Adrenergic α1B (0.1 μM) ([1]; compound at 0.1 μM, 0.1 µM): 8%; Percentage inhibition of ligand binding, Adrenergic α2B (0.03 μM) ([2]; compound at 0.03 μM, 0.03 µM): 19%; Percentage inhibition of ligand binding, Adrenergic α2A (0.1 μM) ([3]; compound at 0.1 μM, 0.1 µM): 7%"
"Cc1ccc2c(c1)c1c(n2CC(O)c2ccncc2)CC2CCCN2C1 (single isomer, unassigned) [76a]",–,–,–,"Percentage inhibition of ligand binding, Adrenergic α1B (0.1 μM) ([1]; compound at 0.1 μM, 0.1 µM): 78%; Percentage inhibition of ligand binding, Adrenergic α2B (0.03 μM) ([2]; compound at 0.03 μM, 0.03 µM): 92%; Percentage inhibition of ligand binding, Adrenergic α2A (0.1 μM) ([3]; compound at 0.1 μM, 0.1 µM): 21%"
"Cc1ccc2c(c1)c1c(n2CC(O)c2ccncc2)CC2CCCN2C1 (single isomer, unassigned) [76b]",–,–,–,"Percentage inhibition of ligand binding, Adrenergic α1B (0.1 μM) ([1]; compound at 0.1 μM, 0.1 µM): 71%; Percentage inhibition of ligand binding, Adrenergic α2B (0.03 μM) ([2]; compound at 0.03 μM, 0.03 µM): 34%; Percentage inhibition of ligand binding, Adrenergic α2A (0.1 μM) ([3]; compound at 0.1 μM, 0.1 µM): 18%"
"Cc1ccc2c(c1)c1c(n2CC(O)c2ccncc2)CC2CCCN2C1 (single isomer, unassigned) [76c]",–,–,–,"Percentage inhibition of ligand binding, Adrenergic α1B (0.1 μM) ([1]; compound at 0.1 μM, 0.1 µM): 33%; Percentage inhibition of ligand binding, Adrenergic α2B (0.03 μM) ([2]; compound at 0.03 μM, 0.03 µM): 35%; Percentage inhibition of ligand binding, Adrenergic α2A (0.1 μM) ([3]; compound at 0.1 μM, 0.1 µM): 5%"
"Cc1ccc2c(c1)c1c(n2CC(O)c2ccncc2)CC2CCCN2C1 (single isomer, unassigned) [76d]",–,–,–,"Percentage inhibition of ligand binding, Adrenergic α1B (0.1 μM) ([1]; compound at 0.1 μM, 0.1 µM): 51%; Percentage inhibition of ligand binding, Adrenergic α2B (0.03 μM) ([2]; compound at 0.03 μM, 0.03 µM): 91%; Percentage inhibition of ligand binding, Adrenergic α2A (0.1 μM) ([3]; compound at 0.1 μM, 0.1 µM): 40%"
"Cc1ccc2c(c1)c1c(n2CC(O)c2ccncc2Cl)CCN(C)C1 (single isomer, unassigned) [135a]",60%,42%,4%,–
"Cc1ccc2c(c1)c1c(n2CC(O)c2ccncc2Cl)CCN(C)C1 (single isomer, unassigned) [135b]",30%,68%,22%,–
"Cc1cnc2c(c1)c1c(n2CC(O)c2ccc(F)cc2)CCN(C)C1 (single isomer, unassigned) [136a]",–,34%,16%,"Percentage inhibition of ligand binding, Adrenergic α1B ([1]; 0.1 μM compound): 54%"
"Cc1ccc(CCn2c3c(c4cc(Cl)cnc42)C2CCCN2CC3)cn1 (single isomer, unassigned) [137b]",23%,30%,–,"Percentage inhibition of ligand binding, Adrenergic α2A ([3]; 0.1 μM compound): 6%"
"Cc1cnc2c(c1)c1c(n2CC(C)(O)c2ccc(F)cc2)CCN(C)C1 (single isomer, unassigned) [138a]",61%,63%,−8%,–
"Cc1cnc2c(c1)c1c(n2CC(C)(O)c2ccc(F)cc2)CCN(C)C1 (single isomer, unassigned) [138b]",22%,25%,4%,–
"CN1CCc2c(c3cc(Cl)ccc3n2CC(C)(O)c2ccc(C(F)(F)F)nc2)C1 (single isomer, unassigned) [143b]",17%,–,–,"Percentage inhibition of ligand binding, Adrenergic α2B ([2]; 0.03 μM compound): 49%; Percentage inhibition of ligand binding, Adrenergic α2A ([3]; 0.1 μM compound): 0%"
"Cc1ccc2c(c1)c1c(n2CC(C)(OC(=O)C(C)C)c2cccnc2)CCN(C)C1 (single isomer, unassigned) [146a]",41%,37%,−1%,–
"Cc1ccc2c(c1)c1c(n2CC(C)(OC(=O)C(C)C)c2cccnc2)CCN(C)C1 (single isomer, unassigned) [146b]",11%,63%,21%,–
"Cc1cnc2c(c1)c1c(n2CC(C)(O)c2ccc(C)nc2)CCN2CCCC12 (single isomer, unassigned) [148a]",23%,52%,−5%,–
"Cc1cnc2c(c1)c1c(n2CC(C)(O)c2ccc(C)nc2)CCN2CCCC12 (single isomer, unassigned) [148c]",6%,16%,−1%,–
"Cc1ccc2c(c1)c1c(n2CC(c2ccncc2)N(C)C)CCN(C)C1 (single isomer, unassigned) [150a]",16%,88% and 96%,16%,"Percentage inhibition of ligand binding, Adrenergic α2B ([2]; 0.1 μM compound): 100%"
"Cc1ccc2c(c1)c1c(n2CC(N)c2ccncc2)CC2CCC1N2C (single isomer, unassigned) [155b]",1%,–,5%,"Percentage inhibition of ligand binding, Adrenergic α2B ([2]; 0.03 μM compound): 5%"
"Cc1cnc2c(c1)c1c(n2CC(N)c2ccc(C#N)cc2)CCN(C)C1 (single isomer, unassigned) [159b]",53%,52%,–,"Percentage inhibition of ligand binding, Adrenergic α2A ([3]; 0.1 μM compound): −12%"
"Cc1cnc2c(c1)c1c(n2CC(N)c2ccc(C#N)cc2)CCNC1 (single isomer, unassigned) [160a]",35%,43%,−12%,–
"Cc1cnc2c(c1)c1c(n2CC(N)c2ccc(C#N)cc2)CCNC1 (single isomer, unassigned) [160b]",65%,41%,5%,–
"Cc1ccc2c(c1)c1c(n2CC(C)(O)c2ccc(C)nc2)CN(C)CC1 (single isomer, unassigned) [196a]",54.6%,93% and 103%,58% and 71%,"Percentage inhibition of ligand binding, Adrenergic α1B ([1]; 0.03 μM compound): 30%; Percentage inhibition of ligand binding, Adrenergic α2A ([3]; 0.03 μM compound): 37%"
"OCCN1CCc2c(c3cc(Cl)ccc3n2CC(O)c2ccncc2)C1 (single isomer, unassigned) [II-93a]",–,–,–,"Percentage inhibition of ligand binding, Adrenergic α1B ([1]; compound at 0.1 μM): 6%; Percentage inhibition of ligand binding, Adrenergic α2B ([2]; compound at 0.03 μM): 24%; Percentage inhibition of ligand binding, Adrenergic α2A ([3]; compound at 0.1 μM, 0.1 µM): 7%"
